Values quoted from earlier work, collected in US7713922B2, “Perfume compositions” (Quest International Services B.V., priority 2005, dated 2010).
Where a name gives a salt, the structure may show the parent alone.

Conditions: at 25° C.

| Compound | VP Class (vapour pressure class) |
| --- | --- |
| COc1ccc(C=O)cc1 [ANISIC ALDEHYDE] | II (vp greater than 30 micron Hg but less than 100 micron at 25° C.) |
| O=COCCc1ccccc1 [PHENYLETHYL FORMATE] | II (vp greater than 30 micron Hg but less than 100 micron at 25° C.) |
| OC/C=C/c1ccccc1 [CINNAMIC ALCOHOL] | I (vp greater than 3 micron Hg but less than 30 micron Hg at 25° C.) |
| CC(=O)OC(C)c1ccccc1 (stereo not shown) [STYRALLYL ACETATE] | III (vp at least 100 micron Hg at 25° C.) |
| CC(=O)OCCc1ccccc1 [PHENYLETHYL ACETATE] | II (vp greater than 30 micron Hg but less than 100 micron at 25° C.) |
| c1ccc(Oc2ccccc2)cc1 [DIPHENYL OXIDE] | I (vp greater than 3 micron Hg but less than 30 micron Hg at 25° C.) |
| CC(C)CCOC(=O)c1ccccc1O [ISOAMYL SALICYLATE] | I (vp greater than 3 micron Hg but less than 30 micron Hg at 25° C.) |
| COC(=O)Cc1ccccc1 [METHYL PHENYLACETATE] | III (vp at least 100 micron Hg at 25° C.) |
| CCOC(C)OCCc1ccccc1 (stereo not shown) [EFETAAL, (2-{[1-(ETHYLOXY)ETHYL]OXY}ETHYL)BENZENE] | II (vp greater than 30 micron Hg but less than 100 micron at 25° C.) |
| COc1ccc(CC(C)C=O)cc1 (stereo not shown) [CANTHOXAL, 2-METHYL-3-(4-METHOXYPHENYL)PROPANAL] | I (vp greater than 3 micron Hg but less than 30 micron Hg at 25° C.) |
| CC(CC=O)CCc1ccccc1 (stereo not shown) [MEFRANAL, 3-METHYL-5-PHENYLPENTANAL] | I (vp greater than 3 micron Hg but less than 30 micron Hg at 25° C.) |
| CC(C)OCCc1ccccc1 [PETIOLE, 2-PHENYLETHYL ISOPROPYL ETHER] | III (vp at least 100 micron Hg at 25° C.) |
| COc1ccc(C(C)=O)cc1 [para-METHOXYACETOPHENONE] | II (vp greater than 30 micron Hg but less than 100 micron at 25° C.) |
| CCc1ccc(CC(C)(C)C=O)cc1 [FLORALOZONE, 2,2-DIMETHYL-3-(PARA-ETHYL PHENYL)PROPANAL] | I (vp greater than 3 micron Hg but less than 30 micron Hg at 25° C.) |
| CC1CC(C)(c2ccccc2)CO1 (stereo not shown) [RHUBAFURAN] | II (vp greater than 30 micron Hg but less than 100 micron at 25° C.) |
| COCCc1ccccc1 [2-PHENYLETHYL METHYL ETHER] | III (vp at least 100 micron Hg at 25° C.) |
| C=CCOC(=O)COc1ccccc1 [ALLYL PHENOXYACETATE] | I (vp greater than 3 micron Hg but less than 30 micron Hg at 25° C.) |
| COC(=O)c1ccccc1N [METHYL ANTHRANILATE] | I (vp greater than 3 micron Hg but less than 30 micron Hg at 25° C.) |
| CC(C)C(=O)OCCOc1ccccc1 [PHENOXYETHYL ISOBUTYRATE] | I (vp greater than 3 micron Hg but less than 30 micron Hg at 25° C.) |
| C=CCc1ccc(OC)c(OC)c1 [METHYL EUGENOL] | I (vp greater than 3 micron Hg but less than 30 micron Hg at 25° C.) |
| CCOC(=O)c1ccccc1 [ETHYL BENZOATE] | III (vp at least 100 micron Hg at 25° C.) |
| CC(=O)c1ccccc1 [ACETOPHENONE] | III (vp at least 100 micron Hg at 25° C.) |
| CC(CCO)CCc1ccccc1 (stereo not shown) [MEFROSOL, 3-METHYL-5-PHENYLPENTANOL] | I (vp greater than 3 micron Hg but less than 30 micron Hg at 25° C.) |

| Compound | VP Class (vapour pressure class) |
| --- | --- |
| CC=Cc1ccc(O)c(OC)c1 [ISOEUGENOL] | II (vp greater than 30 micron Hg but less than 100 micron at 25° C.) |
| C=CCc1ccc(O)c(OC)c1 [EUGENOL] | I (vp greater than 3 micron Hg but less than 30 micron Hg at 25° C.) |
| C=CCc1ccc(OC)cc1 [METHYL CHAVICOL, 4-METHOXY-1-(2-PROPENYL)-BENZENE] | III (vp at least 100 micron Hg at 25° C.) |
| COC(Cc1ccccc1)OC | III (vp at least 100 micron Hg at 25° C.) |
| CCCCCOC(=O)c1ccccc1O [AMYL SALICYLATE] | I (vp greater than 3 micron Hg but less than 30 micron Hg at 25° C.) |
| CC=Cc1ccc(OC)cc1 [ANETHOLE] | II (vp greater than 30 micron Hg but less than 100 micron at 25° C.) |
| OCCCc1ccccc1 [3-PHENYLPROPYL ALCOHOL] | I (vp greater than 3 micron Hg but less than 30 micron Hg at 25° C.) |
| COC(=O)C=Cc1ccccc1 [METHYL CINNAMATE] | I (vp greater than 3 micron Hg but less than 30 micron Hg at 25° C.) |
| CC(C)CCOCCc1ccccc1 [ANTHER, 2-PHENYLETHYL ISOAMYL ETHER] | II (vp greater than 30 micron Hg but less than 100 micron at 25° C.) |
| CC(=O)CCc1ccccc1 [BENZYL ACETONE] | II (vp greater than 30 micron Hg but less than 100 micron at 25° C.) |
| 2,4-DIMETHYL-6-PHENYLDIHYDROPYRAN | I (vp greater than 3 micron Hg but less than 30 micron Hg at 25° C.) |
| COC(=O)c1ccccc1O [METHYL SALICYLATE] | III (vp at least 100 micron Hg at 25° C.) |
| COc1ccc(C)cc1 [para-CRESYL METHYL ETHER] | III (vp at least 100 micron Hg at 25° C.) |
| C/C=C(\C)C(=O)OCc1ccccc1 [BENZYL TIGLATE, PHENYLMETHYL (2E)-2-METHYLBUT-2-ENOATE] | I (vp greater than 3 micron Hg but less than 30 micron Hg at 25° C.) |
| CC(=O)OCc1ccccc1 [BENZYL ACETATE] | III (vp at least 100 micron Hg at 25° C.) |
| COC(=O)c1ccccc1 [METHYL BENZOATE] | III (vp at least 100 micron Hg at 25° C.) |
| CC(C)c1cccc(C(C)CC=O)c1 (stereo not shown) [FLORHYDRAL] | I (vp greater than 3 micron Hg but less than 30 micron Hg at 25° C.) |
| CC(C)(C)c1ccc(CC#N)cc1 [MARENIL, 4-TERT-BUTYLPHENYLACETONITRILE] | I (vp greater than 3 micron Hg but less than 30 micron Hg at 25° C.) |
| CC(C=O)Cc1ccc(C(C)C)cc1 (stereo not shown) [CYCLAMEN ALDEHYDE, 2-METHYL-3-(4′-ISO-PROPYLPHENYL)PROPANAL] | I (vp greater than 3 micron Hg but less than 30 micron Hg at 25° C.) |
| CC(=O)c1ccc(C)cc1 [para-METHYLACETOPHENONE] | III (vp at least 100 micron Hg at 25° C.) |
| CC(C)(C)c1ccc(CCC=O)cc1 [BOURGEONAL, 3-(4-TERT.BUTYLPHENYL)PROPANAL] | I (vp greater than 3 micron Hg but less than 30 micron Hg at 25° C.) |
| CC(C)COC(=O)c1ccccc1O [ISOBUTYL SALICYLATE] | I (vp greater than 3 micron Hg but less than 30 micron Hg at 25° C.) |
| CC(C=O)Cc1ccc2c(c1)OCO2 (stereo not shown) [AQUANAL] | I (vp greater than 3 micron Hg but less than 30 micron Hg at 25° C.) |
